The values below are quoted from earlier work in patent US20240238336A1, “COPPER NANOCLUSTERS, METHODS FOR OBTAINING SAME AND THE USE THEREOF IN THE TREATMENT OF MENKES DISEASE” (priority 2021, published 2024).

The data set deals with Menkes syndrome. The conditions noted are these: child; daily subcutaneous injections for two and a half years.

As for `N[C@@H](Cc1c[nH]cn1)C(=O)O.[Cu]` [copper histidine], the development result was “continued to manifest severe developmental delays”; the epilepsy crises entry was “epilepsy crises were eliminated”; the “pigmentation of skin and hair” value was “improved pigmentation of the skin and hair”.
